Reference: the supplement of paper PMC13380429

Tests used:
Details in all cases: 72 h
HepG2 [1] = test: cell viability relative to DMSO; higher = less toxic
Vero E6 [2] = test: as above
Caco-2 [3] = test: as above
Calu-3 [4] = test: as above
U2OS [5] = test: as above
HepG2 [6] = test: relative viability EC50 (midpoint between 100% and the lowest measured viability); higher = less toxic
Vero E6 [7] = test: as above
Caco-2 [8] = test: as above
Calu-3 [9] = test: as above
U2OS [10] = test: as above
HepG2 [11] = test: drug sensitivity score (DSS) for viability; higher = more toxic; extreme values may be limits of the assay
Vero E6 [12] = test: as above
Caco-2 [13] = test: as above
Calu-3 [14] = test: as above
U2OS [15] = test: as above

| Structure (SMILES) | cell viability (HepG2 [1]; 1 nM) [%] | cell viability (HepG2 [1]; 10 nM) [%] | cell viability (HepG2 [1]; 100 nM) [%] | cell viability (HepG2 [1]; 1000 nM) [%] | cell viability (HepG2 [1]; 10000 nM) [%] | cell viability (Vero E6 [2]; 1 nM) [%] | cell viability (Vero E6 [2]; 10 nM) [%] | cell viability (Vero E6 [2]; 100 nM) [%] | cell viability (Vero E6 [2]; 1000 nM) [%] | cell viability (Vero E6 [2]; 10000 nM) [%] | cell viability (Caco-2 [3]; 1 nM) [%] | cell viability (Caco-2 [3]; 10 nM) [%] | cell viability (Caco-2 [3]; 100 nM) [%] | cell viability (Caco-2 [3]; 1000 nM) [%] | cell viability (Caco-2 [3]; 10000 nM) [%] | cell viability (Calu-3 [4]; 1 nM) [%] | cell viability (Calu-3 [4]; 10 nM) [%] | cell viability (Calu-3 [4]; 100 nM) [%] | cell viability (Calu-3 [4]; 1000 nM) [%] | cell viability (Calu-3 [4]; 10000 nM) [%] | cell viability (U2OS [5]; 1 nM) [%] | cell viability (U2OS [5]; 10 nM) [%] | cell viability (U2OS [5]; 100 nM) [%] | cell viability (U2OS [5]; 1000 nM) [%] | cell viability (U2OS [5]; 10000 nM) [%] | relative viability EC50 (HepG2 [6]) [µM] | relative viability EC50 (Vero E6 [7]) [µM] | relative viability EC50 (Caco-2 [8]) [µM] | relative viability EC50 (Calu-3 [9]) [µM] | relative viability EC50 (U2OS [10]) [µM] | drug sensitivity score (HepG2 [11]) | drug sensitivity score (Vero E6 [12]) | drug sensitivity score (Caco-2 [13]) | drug sensitivity score (Calu-3 [14]) | drug sensitivity score (U2OS [15]) |
| --- | --- | --- | --- | --- | --- | --- | --- | --- | --- | --- | --- | --- | --- | --- | --- | --- | --- | --- | --- | --- | --- | --- | --- | --- | --- | --- | --- | --- | --- | --- | --- | --- | --- | --- | --- |
| C[C@@H]1C[C@H]2[C@@H]3C[C@H](F)C4=CC(=O)C=C[C@]4(C)[C@@]3(F)[C@@H](O)C[C@]2(C)[C@@]1(O)C(=O)COC(=O)C(C)(C)C [flumethasone-pivalate] | 82.4 | 100 | 87.4 | 103 | 82.6 | 96.6 | 95.3 | 101 | 96.3 | 84.5 | 121 | 103 | 122 | 94.9 | 89 | 113 | 102 | 106 | 94.3 | 100 | 106 | 102 | 102 | 97.6 | 101 | > 10 | > 10 | > 10 | > 10 | > 10 | 0.3 | 0.6 | 0.1 | 0 | 0 |
| C[C@@H]1C[C@H]2[C@@H]3C[C@H](F)C4=CC(=O)C=C[C@]4(C)[C@@]3(F)[C@@H](O)C[C@]2(C)[C@@]1(O)C(=O)CO [flumethasone] | 96.8 | 109 | 96.1 | 91.2 | 91.8 | 107 | 105 | 97 | 105 | 101 | 84.6 | 94.5 | 106 | 94.1 | 103 | 95.5 | 100 | 106 | 92.2 | 101 | 96.6 | 93.5 | 98.1 | 92.1 | 92.7 | > 10 | > 10 | > 10 | > 10 | > 10 | 0 | 0 | 0 | 0 | 0 |
| CCCCCCCCCC(=O)OCCN1CCN(CCCN2c3ccccc3Sc3ccc(C(F)(F)F)cc32)CC1 [fluphenazine-decanoate] | 95.5 | 97.4 | 96.9 | 93.7 | 108 | 104 | 105 | 96.3 | 106 | 105 | 111 | 84.8 | 96.3 | 98 | 92.1 | 101 | 95.8 | 98.5 | 107 | 91.6 | 97.2 | 100 | 99 | 100 | 96.9 | > 10 | > 10 | > 10 | > 10 | > 10 | 0 | 0 | 0 | 0 | 0 |
| O=C1NCN(c2ccccc2)C12CCN(CCCC(c1ccc(F)cc1)c1ccc(F)cc1)CC2 [fluspirilene] | 112 | 100 | 101 | 88.5 | 84.8 | 115 | 98.1 | 103 | 103 | 93.7 | 88.3 | 106 | 80.5 | 116 | 99 | 101 | 104 | 99.4 | 105 | 105 | 98.4 | 103 | 98.1 | 105 | 90.5 | > 10 | > 10 | > 10 | > 10 | > 10 | 1.1 | 0 | 0 | 0 | 0 |
| CC(C)=CCC[C@]1(C)C=Cc2c(O)c3c(c(CC=C(C)C)c2O1)O[C@]12C(=C[C@@H]4C[C@H]1C(C)(C)O[C@@]2(C/C=C(/C)C(=O)O)C4=O)C3=O [gambogic-acid] | 97.6 | 93.6 | 99.3 | 15.6 | -0.4 | 105 | 104 | 106 | 6 | -0.3 | 90.7 | 102 | 94.9 | 1.9 | -0.1 | 100 | 138 | 111 | 4.7 | -0.3 | 98.8 | 102 | 94 | -0.1 | -0.3 | 0.51 | 0.4 | 0.288 | 0.404 | 0.269 | 15.4 | 16.7 | 18.5 | 16.6 | 18.8 |
| CC1C(=O)OC2C(O)C34C5CC(C(C)(C)C)C36C(OC(=O)C6O)OC4(C(=O)O5)C12O (stereo not given) [ginkgolide-B] | 110 | 98.4 | 99 | 97.3 | 97.5 | 100 | 101 | 97.1 | 98.9 | 100 | 98 | 93.4 | 102 | 93.8 | 92.8 | 106 | 90.8 | 103 | 98.6 | 106 | 106 | 102 | 106 | 96.2 | 104 | > 10 | > 10 | > 10 | > 10 | > 10 | 0 | 0 | 0 | 0 | 0 |
